Measurements published in patent publication US9562082B2, “Production of glycoproteins with low N-glycolylneuraminic acid (Neu5Gc) content” (LEK Pharmaceuticals D.D., priority 2009, dated 2017).

Test system: Recombinant CHO cells
Test: Cell viability by trypan blue exclusion
Type: cell-based, Chinese hamster
Conditions: 8 day batch cultures, all DMSO concentrations, times of addition and temperatures tested
Protocol: Cell viability was determined by the trypan blue exclusion method. The cell concentration was determined using a Vi-CELL™ Series Cell Viability Analyzer (Beckman Coulter, Fullerton, Calif., USA). Glucose, lactate, glutamine, and ammonia (NH4^+) concentrations were measured during the growth phase using a BioProfile Analyzer for mammalian cell culture (BioProfile 100 plus, Nova Biomedical, Waltham, USA). Additionally, oxygen and […] concentrations were monitored daily using pHOx (Stat Prophile pHOx Basic, Nova Biomedical, Waltham, USA). Secreted glycoprotein concentrations were quantified by enzyme linked immunosorbent assay (ELISA), and the titres were expressed in μg/ml.
Initially, the inventor avoided the addition of DMSO to the cell culture at the beginning of the bioprocess, because […] speculated that such addition might not be optimal, since the cells had no time for an optimal lag phase-growth (adaptation). […] Viable cell density and viability of the cells were measured in the middle and at the end of that period. The final titre (concentration of each glycoprotein in the culture medium) was measured in the supernatants with ELISA. […] The content of Neu5Gc on the purified glycoproteins was determined, and the acidic isoform distribution reflecting the degree of sialylation was measured with AEX.

Q: How did the final cell viability turn out when `C[S+](C)[O-]` [DMSO, dimethyl sulfoxide] was run?
A: above 97.5%
